Experimental data from paper PMC10175918 (Communications Biology, 2023).
Where two headings read alike, the source gives them in different places.

Columns and labels:
Assay in all cases: TGFα-shedding assay-based GPCR screening with chimeric Gα subunit proteins
Assay type in all cases: cell-based
348 GPCRs [1] = biological target: T1, 348 GPCRs (Homo sapiens, UniProt Q96RJ0); conditions: 10µM, Favipiravir 100μM
T1 construct: expressed in transfected cells; host or cells: HEK293A
T1 sequence (Q96RJ0 1-339): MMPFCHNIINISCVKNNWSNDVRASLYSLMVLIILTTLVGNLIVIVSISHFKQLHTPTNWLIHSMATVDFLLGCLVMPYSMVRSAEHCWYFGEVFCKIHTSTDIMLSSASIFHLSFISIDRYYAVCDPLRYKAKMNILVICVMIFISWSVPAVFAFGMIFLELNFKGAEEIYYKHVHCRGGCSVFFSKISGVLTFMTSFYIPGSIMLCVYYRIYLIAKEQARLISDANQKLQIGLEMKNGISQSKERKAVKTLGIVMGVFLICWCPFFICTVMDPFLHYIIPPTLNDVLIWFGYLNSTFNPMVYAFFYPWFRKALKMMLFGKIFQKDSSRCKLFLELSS

348 GPCRs [2] = biological target: T2, 348 GPCRs (Homo sapiens, UniProt P08912)
T2 construct: expressed in transfected cells; host or cells: HEK293A
T2 sequence (P08912 1-532): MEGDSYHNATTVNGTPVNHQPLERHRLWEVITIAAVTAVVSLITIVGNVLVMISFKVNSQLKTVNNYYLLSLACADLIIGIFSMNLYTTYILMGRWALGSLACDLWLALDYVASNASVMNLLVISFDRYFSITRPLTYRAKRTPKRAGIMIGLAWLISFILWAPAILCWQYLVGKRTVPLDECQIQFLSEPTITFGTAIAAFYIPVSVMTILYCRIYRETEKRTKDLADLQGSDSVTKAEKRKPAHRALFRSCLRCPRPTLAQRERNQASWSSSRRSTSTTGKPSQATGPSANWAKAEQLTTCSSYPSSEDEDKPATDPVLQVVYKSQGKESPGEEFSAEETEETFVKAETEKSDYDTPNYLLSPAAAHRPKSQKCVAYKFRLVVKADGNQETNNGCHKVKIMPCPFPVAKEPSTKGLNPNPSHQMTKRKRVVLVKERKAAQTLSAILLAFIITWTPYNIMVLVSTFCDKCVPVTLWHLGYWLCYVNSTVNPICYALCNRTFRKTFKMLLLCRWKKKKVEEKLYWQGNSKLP

348 GPCRs [3] = biological target: T3, 348 GPCRs (Homo sapiens, UniProt P34995); conditions: 10µM, Favipiravir 100μM
T3 construct: expressed in transfected cells; host or cells: HEK293A
T3 sequence (P34995 1-402): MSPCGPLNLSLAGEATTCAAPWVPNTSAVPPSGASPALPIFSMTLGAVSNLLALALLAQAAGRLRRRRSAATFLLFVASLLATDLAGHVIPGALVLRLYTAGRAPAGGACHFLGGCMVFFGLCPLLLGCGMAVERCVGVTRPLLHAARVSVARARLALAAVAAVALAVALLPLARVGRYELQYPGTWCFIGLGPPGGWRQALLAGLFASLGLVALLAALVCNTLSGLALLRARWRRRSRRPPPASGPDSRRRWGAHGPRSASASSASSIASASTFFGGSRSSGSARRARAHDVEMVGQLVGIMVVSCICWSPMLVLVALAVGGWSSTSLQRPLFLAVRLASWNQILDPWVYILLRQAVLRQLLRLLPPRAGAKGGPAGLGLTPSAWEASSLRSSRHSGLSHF

348 GPCRs [4] = biological target: T4, 348 GPCRs (Homo sapiens, UniProt P49685); conditions: 10µM, Favipiravir 100μM
T4 sequence (P49685 1-360): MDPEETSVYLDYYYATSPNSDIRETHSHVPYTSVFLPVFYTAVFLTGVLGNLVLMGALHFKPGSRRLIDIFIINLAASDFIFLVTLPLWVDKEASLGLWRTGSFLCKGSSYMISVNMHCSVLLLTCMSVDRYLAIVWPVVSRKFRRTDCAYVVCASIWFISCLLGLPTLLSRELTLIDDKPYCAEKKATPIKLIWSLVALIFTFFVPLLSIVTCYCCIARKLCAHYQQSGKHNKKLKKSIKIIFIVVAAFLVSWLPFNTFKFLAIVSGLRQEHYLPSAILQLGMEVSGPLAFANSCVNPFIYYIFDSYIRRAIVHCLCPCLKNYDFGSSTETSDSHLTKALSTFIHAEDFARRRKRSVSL

348 GPCRs [5] = biological target: T5, 348 GPCRs (Homo sapiens, UniProt Q96LB2); conditions: 10µM, Favipiravir 100μM
T5 construct: expressed in transfected cells; host or cells: HEK293A

348 GPCRs [6] = biological target: T6, 348 GPCRs (Homo sapiens, UniProt Q9HBW9); conditions: 10µM, Favipiravir 100μM
T6 construct: expressed in transfected cells; host or cells: HEK293A
T6 sequence (Q9HBW9 20-690): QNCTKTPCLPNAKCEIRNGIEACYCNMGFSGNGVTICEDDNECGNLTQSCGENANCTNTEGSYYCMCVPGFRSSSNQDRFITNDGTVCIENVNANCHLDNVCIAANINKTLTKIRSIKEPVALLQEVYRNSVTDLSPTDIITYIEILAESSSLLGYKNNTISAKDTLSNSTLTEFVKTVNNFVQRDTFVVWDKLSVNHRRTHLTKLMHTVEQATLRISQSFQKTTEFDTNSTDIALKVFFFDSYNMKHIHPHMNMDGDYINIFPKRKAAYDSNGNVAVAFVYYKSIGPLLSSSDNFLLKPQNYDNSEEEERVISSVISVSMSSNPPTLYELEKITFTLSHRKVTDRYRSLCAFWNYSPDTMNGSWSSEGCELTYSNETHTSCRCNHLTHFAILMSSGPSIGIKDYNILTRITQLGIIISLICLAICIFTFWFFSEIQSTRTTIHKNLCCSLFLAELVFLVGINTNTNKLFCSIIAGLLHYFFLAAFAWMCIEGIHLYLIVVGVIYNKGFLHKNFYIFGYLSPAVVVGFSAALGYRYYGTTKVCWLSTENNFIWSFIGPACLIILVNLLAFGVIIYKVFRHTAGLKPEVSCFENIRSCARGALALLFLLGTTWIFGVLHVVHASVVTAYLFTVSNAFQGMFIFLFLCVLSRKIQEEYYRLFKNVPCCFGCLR

[7] = TA1 (trace amine associated receptor 1), read-out: % GPCR activation compared to TPA
[8] = GPCR M5 (Muscarinic acetylcholine receptor M5), read-out: % GPCR activation compared to TPA
[9] = EP1 (prostaglandin E receptor 1), read-out: % GPCR activation compared to TPA
[10] = GPR15 (G protein-coupled receptor 15), read-out: % GPCR activation compared to TPA
[11] = MRGPRX1 (MAS-related GPR, member X1), read-out: % GPCR activation compared to TPA
[12] = ELTD1 (EGF, latrophilin and seven transmembrane domain containing 1), read-out: % GPCR activation compared to TPA
[13] = read-out: % GPCR activation compared to TPA, TA1 (trace amine associated receptor 1)
[14] = read-out: % GPCR activation compared to TPA, GPCR M5 (Muscarinic acetylcholine receptor M5)
[15] = read-out: % GPCR activation compared to TPA, EP1 (prostaglandin E receptor 1)
[16] = read-out: % GPCR activation compared to TPA, GPR15 (G protein-coupled receptor 15)
[17] = read-out: % GPCR activation compared to TPA, MRGPRX1 (MAS-related GPR, member X1)
[18] = read-out: % GPCR activation compared to TPA, ELTD1 (EGF, latrophilin and seven transmembrane domain containing 1)

T5 sequence (Q96LB2 whole entry): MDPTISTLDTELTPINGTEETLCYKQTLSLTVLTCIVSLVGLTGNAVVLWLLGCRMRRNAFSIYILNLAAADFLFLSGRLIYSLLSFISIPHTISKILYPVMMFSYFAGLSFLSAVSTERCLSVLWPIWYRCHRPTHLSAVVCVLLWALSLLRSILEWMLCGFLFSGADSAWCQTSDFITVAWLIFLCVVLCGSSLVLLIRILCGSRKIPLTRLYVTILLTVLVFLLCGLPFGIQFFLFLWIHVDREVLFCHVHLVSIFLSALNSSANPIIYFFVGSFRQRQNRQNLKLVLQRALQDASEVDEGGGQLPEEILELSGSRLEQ

SMILES | activation at 100 µM (348 GPCRs [1]; [7]) | activation at 10 µM (348 GPCRs [2]; [8]) | activation at 100 µM (348 GPCRs [3]; [9]) | activation at 100 µM (348 GPCRs [4]; [10]) | activation at 100 µM (348 GPCRs [5]; [11]) | activation at 100 µM (348 GPCRs [6]; [12]) | activation at 100 µM (348 GPCRs [1]; [13]) | activation at 10 µM (348 GPCRs [2]; [14]) | activation at 100 µM (348 GPCRs [3]; [15]) | activation at 100 µM (348 GPCRs [4]; [16]) | activation at 100 µM (348 GPCRs [5]; [17]) | activation at 100 µM (348 GPCRs [6]; [18]) | activation at 100 µM (348 GPCRs [2]; GPCR M5 (Muscarinic acetylcholine receptor M5), 100μM, read-out: % GPCR activation compared to TPA)
N#C[C@@]1(c2ccc3c(N)ncnn23)O[C@H](CO)[C@@H](O)[C@H]1O [GS441524] | -1.3% | 2.9% | -1.84% | -0.752% | -1.59% | -0.971% | – | – | – | – | – | – | –
CC(C)OC(=O)[C@H](C)N[P@](=O)(OC[C@H]1O[C@@H](n2ccc(=O)[nH]c2=O)[C@](C)(F)[C@@H]1O)Oc1ccccc1 [sofosbuvir] | – | – | – | – | – | – | -1.12% | -1.43% | -0.685% | -12.9% | -1.41% | 0.08% | –
CCC(CC)COC(=O)[C@H](C)N[P@](=O)(OC[C@H]1O[C@@](C#N)(c2ccc3c(N)ncnn23)[C@H](O)[C@@H]1O)Oc1ccccc1 [remdesivir] | – | – | – | – | – | – | -1.76% | -0.595% | 0.488% | -0.0536% | 0.23% | 0.0637% | –
CC(C)C(=O)OC[C@H]1O[C@@H](n2ccc(NO)nc2=O)[C@H](O)[C@@H]1O [molnupiravir] | -2.64% | -0.639% | 0.204% | -0.0279% | -2.42% | -0.0765% | – | – | – | – | – | – | –
NC(=O)c1nc(F)cnc1O [favipiravir, 6-fluoro-3-hydroxy-2-pyrazinecarboxamide] | -2.98% | – | -1.04% | 1.23% | -1.16% | -0.0903% | – | – | – | – | – | – | 0.695%
